Ends that are not written are not given here.
T1: ADGRF1 (Homo sapiens, UniProt Q5T601)
T1 construct: Flag (N); expressed in transfected cells; host or cells: HEK293F
T1 sequence (Q5T601 20-910): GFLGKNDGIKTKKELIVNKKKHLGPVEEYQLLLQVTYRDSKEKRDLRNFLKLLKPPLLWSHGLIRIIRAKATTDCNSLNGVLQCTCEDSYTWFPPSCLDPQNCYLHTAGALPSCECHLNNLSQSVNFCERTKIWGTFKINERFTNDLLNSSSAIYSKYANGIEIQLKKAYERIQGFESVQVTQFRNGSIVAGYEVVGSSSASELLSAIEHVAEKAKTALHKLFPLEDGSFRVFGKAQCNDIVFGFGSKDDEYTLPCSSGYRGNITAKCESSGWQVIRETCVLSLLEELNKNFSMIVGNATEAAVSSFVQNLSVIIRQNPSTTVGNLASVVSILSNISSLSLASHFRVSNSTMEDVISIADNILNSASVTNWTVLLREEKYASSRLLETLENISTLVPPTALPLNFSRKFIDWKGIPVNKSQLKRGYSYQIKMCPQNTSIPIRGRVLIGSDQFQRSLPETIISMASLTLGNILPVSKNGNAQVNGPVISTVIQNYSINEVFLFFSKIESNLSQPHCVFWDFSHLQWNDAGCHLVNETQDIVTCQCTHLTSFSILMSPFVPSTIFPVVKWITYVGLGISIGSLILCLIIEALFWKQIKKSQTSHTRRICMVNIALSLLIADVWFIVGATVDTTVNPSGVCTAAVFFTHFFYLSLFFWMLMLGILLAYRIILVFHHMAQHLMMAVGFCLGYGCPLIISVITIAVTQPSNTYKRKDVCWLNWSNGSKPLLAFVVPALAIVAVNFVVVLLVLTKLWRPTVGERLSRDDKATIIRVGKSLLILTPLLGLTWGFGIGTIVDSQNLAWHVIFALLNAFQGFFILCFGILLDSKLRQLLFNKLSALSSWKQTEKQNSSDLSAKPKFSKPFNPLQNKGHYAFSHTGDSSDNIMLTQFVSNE

T2: ADGRD1 (Homo sapiens, UniProt Q6QNK2)
T2 construct: Flag (N); expressed in transfected cells; host or cells: HEK293F
T2 sequence (Q6QNK2 26-874): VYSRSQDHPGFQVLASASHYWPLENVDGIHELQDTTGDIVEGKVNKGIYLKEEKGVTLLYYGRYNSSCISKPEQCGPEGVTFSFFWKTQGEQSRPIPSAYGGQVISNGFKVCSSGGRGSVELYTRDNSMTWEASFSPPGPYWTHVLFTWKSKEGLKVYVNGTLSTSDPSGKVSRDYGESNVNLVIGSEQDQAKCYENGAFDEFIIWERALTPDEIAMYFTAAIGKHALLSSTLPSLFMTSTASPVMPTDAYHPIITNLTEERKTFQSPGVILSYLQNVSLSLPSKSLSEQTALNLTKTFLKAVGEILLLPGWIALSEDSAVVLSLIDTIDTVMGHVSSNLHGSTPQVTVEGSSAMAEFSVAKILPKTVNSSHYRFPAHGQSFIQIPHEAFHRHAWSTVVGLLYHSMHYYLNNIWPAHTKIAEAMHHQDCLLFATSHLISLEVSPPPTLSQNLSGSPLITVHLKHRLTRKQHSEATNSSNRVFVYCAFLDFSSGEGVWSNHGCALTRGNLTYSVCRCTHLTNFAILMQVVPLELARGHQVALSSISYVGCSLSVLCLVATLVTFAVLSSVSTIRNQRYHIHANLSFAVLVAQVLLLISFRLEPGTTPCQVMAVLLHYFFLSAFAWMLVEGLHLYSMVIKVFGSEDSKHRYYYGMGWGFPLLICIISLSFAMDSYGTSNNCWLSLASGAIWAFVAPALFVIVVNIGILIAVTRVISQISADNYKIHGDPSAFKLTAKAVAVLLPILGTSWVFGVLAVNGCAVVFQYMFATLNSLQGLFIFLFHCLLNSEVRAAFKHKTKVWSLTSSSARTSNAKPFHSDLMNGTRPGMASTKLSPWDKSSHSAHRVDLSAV

B1: G702^4.45bY (protein, UniProt Q5T601 20-910, looked up, variant G702Y)
Adhesion G-protein coupled …: GFLGKNDGIKTKKELIVNKKKHLGPVEEYQLLLQVTYRDSKEKRDLRNFLKLLKPPLLWSHGLIRIIRAKATTDCNSLNGVLQCTCEDSYTWFPPSCLDPQNCYLHTAGALPSCECHLNNLSQSVNFCERTKIWGTFKINERFTNDLLNSSSAIYSKYANGIEIQLKKAYERIQGFESVQVTQFRNGSIVAGYEVVGSSSASELLSAIEHVAEKAKTALHKLFPLEDGSFRVFGKAQCNDIVFGFGSKDDEYTLPCSSGYRGNITAKCESSGWQVIRETCVLSLLEELNKNFSMIVGNATEAAVSSFVQNLSVIIRQNPSTTVGNLASVVSILSNISSLSLASHFRVSNSTMEDVISIADNILNSASVTNWTVLLREEKYASSRLLETLENISTLVPPTALPLNFSRKFIDWKGIPVNKSQLKRGYSYQIKMCPQNTSIPIRGRVLIGSDQFQRSLPETIISMASLTLGNILPVSKNGNAQVNGPVISTVIQNYSINEVFLFFSKIESNLSQPHCVFWDFSHLQWNDAGCHLVNETQDIVTCQCTHLTSFSILMSPFVPSTIFPVVKWITYVGLGISIGSLILCLIIEALFWKQIKKSQTSHTRRICMVNIALSLLIADVWFIVGATVDTTVNPSGVCTAAVFFTHFFYLSLFFWMLMLGILLAYRIILVFHHMAQHLMMAVYFCLGYGCPLIISVITIAVTQPSNTYKRKDVCWLNWSNGSKPLLAFVVPALAIVAVNFVVVLLVLTKLWRPTVGERLSRDDKATIIRVGKSLLILTPLLGLTWGFGIGTIVDSQNLAWHVIFALLNAFQGFFILCFGILLDSKLRQLLFNKLSALSSWKQTEKQNSSDLSAKPKFSKPFNPLQNKGHYAFSHTGDSSDNIMLTQFVSNE
B2: V689^ICL2A (protein, UniProt Q5T601 20-910, looked up, variant V689A)
Adhesion G-protein coupled …: GFLGKNDGIKTKKELIVNKKKHLGPVEEYQLLLQVTYRDSKEKRDLRNFLKLLKPPLLWSHGLIRIIRAKATTDCNSLNGVLQCTCEDSYTWFPPSCLDPQNCYLHTAGALPSCECHLNNLSQSVNFCERTKIWGTFKINERFTNDLLNSSSAIYSKYANGIEIQLKKAYERIQGFESVQVTQFRNGSIVAGYEVVGSSSASELLSAIEHVAEKAKTALHKLFPLEDGSFRVFGKAQCNDIVFGFGSKDDEYTLPCSSGYRGNITAKCESSGWQVIRETCVLSLLEELNKNFSMIVGNATEAAVSSFVQNLSVIIRQNPSTTVGNLASVVSILSNISSLSLASHFRVSNSTMEDVISIADNILNSASVTNWTVLLREEKYASSRLLETLENISTLVPPTALPLNFSRKFIDWKGIPVNKSQLKRGYSYQIKMCPQNTSIPIRGRVLIGSDQFQRSLPETIISMASLTLGNILPVSKNGNAQVNGPVISTVIQNYSINEVFLFFSKIESNLSQPHCVFWDFSHLQWNDAGCHLVNETQDIVTCQCTHLTSFSILMSPFVPSTIFPVVKWITYVGLGISIGSLILCLIIEALFWKQIKKSQTSHTRRICMVNIALSLLIADVWFIVGATVDTTVNPSGVCTAAVFFTHFFYLSLFFWMLMLGILLAYRIILAFHHMAQHLMMAVGFCLGYGCPLIISVITIAVTQPSNTYKRKDVCWLNWSNGSKPLLAFVVPALAIVAVNFVVVLLVLTKLWRPTVGERLSRDDKATIIRVGKSLLILTPLLGLTWGFGIGTIVDSQNLAWHVIFALLNAFQGFFILCFGILLDSKLRQLLFNKLSALSSWKQTEKQNSSDLSAKPKFSKPFNPLQNKGHYAFSHTGDSSDNIMLTQFVSNE

What was measured:
ADGRF1 [1] = target: T1, ADGRF1; experiment: BRET assay using TRUPATH biosensors, Gi activation of ADGRF1; type: cell-based; details: ADGRF1 WT; for Emax (mean ± s.e.m.): n = 3; for EC50: n = 3, read-out: pEC50 (mean ± s.e.m.) (converted)
Description: (§1) To study the synthetic stalk peptide-induced G protein activation of ADGRD1 and ADGRF1, a BRET assay using TRUPATH biosensors was conducted to measure the proximal interaction between RLuc8 fused to the Gα subunit and GFP2 fused to the Gγ subunit. The TRUPATH suite of biosensors was obtained from Addgene (Addgene kit no. 1000000163) as a gift from B. Roth, including GαsS-RLuc8, Gαi1-RLuc8, Gβ3 and Gγ9-GFP2 as previously described.
(§2) The wild-type or mutant ADGRD1 and ADGRF1 were transiently co-transfected with plasmids encoding Gα-RLuc8 (GαsS-RLuc8 for Gs activation assay; Gαi1-RLuc8 for Gi activation assay), Gβ3 and Gγ9-GFP2 at a ratio of 2:1:1:1 (receptor plasmid, 800 ng; G protein subunit plasmids, 400 ng for each) in 2 ml HEK293F cells at a density of 1.2 × 10^6 cells per ml. Cell cultivation and receptor surface expression measurement were performed as described above. The cells were plated into 96-well white plates (40,000 cells per well) in 60 μl of assay buffer and incubated at 37 °C for 30 min. Then 10 μl of freshly prepared 50 μM coelenterazine 400a (Nanolight Technologies) was added. […] The cells were stimulated with 30 μl of synthetic stalk peptide at different concentrations and the BRET signals were monitored continuously five times. The last measurements were used in data analysis. The BRET ratios were calculated as the ratio of the GFP2 emission to RLuc8 emission.

ADGRD1 = target: T2, ADGRD1; experiment: BRET assay using TRUPATH biosensors, G protein activation of ADGRD1; type: cell-based; details: Gs, ADGRD1 WT, n = 3; for EC50: read-out: pEC50 (mean ± s.e.m.) (converted)
Description: as §1, §2

ADGRF1 [2] = experiment: Cell-surface expression by flow cytometry, ADGRF1; type: cell-based, human; details: anti-Flag antibody, three independent measurements in duplicate
Description: The wild-type ADGRD1 and ADGRF1 and mutants used in functional studies were constructed into a pTT5 vector with a Flag tag at the N terminus for receptor expression measurement. The basal activity of ADGRD1 and ADGRF1 in mediating Gs signalling was measured by a cAMP accumulation assay using a LANCE Ultra cAMP detection kit (PerkinElmer) following the manufacturer’s instruction. In brief, 2 ml HEK293F cells (Invitrogen; cells were routinely tested for mycoplasma contamination) at a density of 1.2 × 10^6 cells per ml were transiently transfected with 2,000 ng plasmid of the wild-type or mutant receptor and cultured at 37 °C for 48 h with 5% CO2 atmosphere in a shaker shaking at 220 rpm. After collection, the cell-surface expression of the receptors was measured by incubating 10 μl cells with 15 μl monoclonal anti-Flag M2-FITC antibody (Sigma; 1:120 diluted in TBS supplemented with 4% BSA and 20% viability staining solution 7-AAD (Invitrogen)) at 4 °C for 20 min. After incubation, 175 μl TBS buffer was added and the fluorescent signal was measured using a flow cytometry reader (Guava easyCyte HT, Millipore).

[3] = ADGRF1 constructs (pF1 Gi part of table)

| Molecule | Emax (mean ± s.e.m.) (ADGRF1 [1]) | EC50 (ADGRF1 [1]) | Emax (mean ± s.e.m.) (ADGRD1) | EC50 (ADGRD1) | other results |
| --- | --- | --- | --- | --- | --- |
| CC[C@H](C)[C@H](NC(=O)[C@H](C)NC(=O)[C@H](Cc1ccccc1)NC(=O)[C@H](CC(N)=O)NC(=O)[C@@H](N)[C@@H](C)O)C(=O)N[C@@H](CC(C)C)C(=O)N[C@@H](CCSC)C(=O)N[C@@H](CCC(N)=O)C(=O)N[C@H](C(=O)N[C@H](C(=O)N1CCC[C@H]1C(=O)N[C@@H](CC(C)C)C(=O)N[C@@H](CCC(=O)O)C(=O)O)C(C)C)C(C)C [pD1] | 82 ± 8 % of WT | 0.132 µM | – | – | – |
| TNAAILMQVVPLE [pD1 (F547^S3A)] | – | – | 69 ± 13 % of WT | 0.724 µM | – |
| TNFAIAMQVVPLE [pD1 (L550^S6A)] | – | – | 53 ± 5 % of WT | 0.166 µM | – |
| TNFAILAQVVPLE [pD1 (M551^S7A)] | – | – | 79 ± 10 % of WT | 0.263 µM | – |
| TSASILMSPFVP [pF1 (F569^S3A)] | 108 ± 7 % of WT | 0.38 µM | – | – | – |
| TSFSIAMSPFVP [pF1 (L572^S6A)] | 101 ± 12 % of WT | 0.676 µM | – | – | – |
| TSFSILASPFVP [pF1 (M573^S7A)] | 87 ± 11 % of WT | 0.501 µM | – | – | – |
| B1 | – | – | – | – | Cell-surface expression (% of WT) (ADGRF1 [2]; [3]): 87 ± 12 % of WT; Cell-surface expression (% of WT) (ADGRF1 [2]; ADGRF1 constructs, in parallel to A8-induced Gi activation): 94 ± 1 % of WT; Cell-surface expression (% of WT) (ADGRF1 [2]; ADGRF1 constructs, in parallel to A8-induced Gs activation): 104 ± 2 % of WT |
| B2 | – | – | – | – | Cell-surface expression (% of WT) (ADGRF1 [2]; [3]): 112 ± 3 % of WT; Cell-surface expression (% of WT) (ADGRF1 [2]; ADGRF1 constructs, in parallel to pF1-induced Gs activation): 114 ± 10 % of WT |
